Data reported in US8188078B2 (Sanofi-Aventis, priority 2007, dated 2012).
pIC50: −log10 of the molar value.

Assays:
[1] = biological target: T1, c-MET (Homo sapiens, UniProt P08581); assay: Test A: HTRF Met test in 96-well format; format: biochemical
T1 construct: The recombinant DNA His-Tev-MET (956-1390) in pFastBac(Invitrogen); His (N, cleaved yes); Tev (TEV protease site) (N, cleaved yes); made in house; host or cells: SF21 insect cells (baculovirus, pFastBac)
Experimental: I) Expression and Purification of MET, Cytoplasmic Domain
The recombinant DNA His-Tev-MET (956-1390) in pFastBac(Invitrogen) is transfected in insect cells and after several stages of viral amplification, the final stock of baculovirus is tested for expression of the protein of interest.
After infection for 72 h at 27° C. with the recombinant virus, the SF21 cell cultures are harvested by centrifugation and the cellular deposits are stored at −80° C.
The cellular deposits are resuspended in the lysis buffer (buffer A [50 mM HEPES, pH 7.5, 250 mM NaCl, Glycerol 10%, TECP 1 mM]; +cocktail of protease inhibitors Roche Diagnostics without EDTA, ref 1873580), stirred at 4° C. until homogeneous, then lysed mechanically using apparatus of the “Dounce” type.
After centrifugation, the lysis supernatant is incubated for 2 h at 4° C. with Nickel Chelate resin (His-Trap 6 Fast Flow™, GE HealthCare). After washing with 20 volumes of Tp A, the suspension is packed in a column, and the proteins are eluted with a gradient of buffer B ([…]+290 mM imidazole).
The fractions containing the protein of interest with a view to electrophoretic analysis (SDS PAGE) are collected, concentrated by ultrafiltration (cut-off 10 kDa) and injected in an exclusion chromatography column (Superdex™ 200, GE HealthCare) equilibrated with buffer A.
After enzymatic cleavage of the tag Histidine, the protein is reinjected in a new IMAC Nickel Chelate chromatography column (His-Trap 6 Fast Flow™, GE HealthCare) equilibrated with Buffer A. The fractions eluted with a gradient of buffer B and containing the protein of interest after electrophoresis (SDS PAGE), are finally collected and stored at −80° C.
For the production of autophosphorylated protein, the preceding fractions are incubated for 1 h at room temperature after adding ATP 2 mM, MgCl2 2 mM, and Na3VO4 4 mM. After stopping the reaction with 5 mM of EDTA, the reaction mixture is injected in a HiPrep desalting column (GE HealthCare) equilibrated beforehand with buffer A+Na3VO4 4 mM; the fractions containing the protein of interest (SDS PAGE analysis) are collected and stored at −80° C. The degree of phosphorylation is verified by mass spectrometry (LC-MS), and by peptide mapping.
A) HTRF Met test in 96-well format
In a final volume of 50 μl of enzymatic reaction mixture, final c-MET 5 nM is incubated in the presence of the molecule to be tested (for a final concentration range from 0.17 nM to 10 μM, final DMSO 3%) in buffer MOPS 10 mM pH 7.4, DTT 1 mM, Tween 20 0.01%. The reaction is initiated by the substrate solution to obtain the final concentrations of poly-(GAT) 1 μg/ml, ATP 10 μM and MgCl2 5 mM. After incubation for 10 min at room temperature, the reaction is stopped with a mix of 30 μl to obtain a final solution of Hepes 50 mM pH 7.5, potassium fluoride 500 mM, BSA 0.1% and EDTA 133 mM in the presence of 80 ng Streptavidin 61SAXLB Cis-Bio Int. and 18 ng anti-phosphotyrosine Mab PT66-Europium Cryptate per well. After 2 hours of incubation at room temperature, reading is carried out at 2 wavelengths 620 nm and 665 nm in a reader for the TRACE/HTRF technique and the percentage inhibition is calculated according to the 665/620 ratios.

[2] = system: MKN45 cells; assay: Test D: cellular proliferation by 14C-thymidine pulse, MKN45 cells; format: cell-based; details: Homo sapiens, MKN-45, cellular proliferation by 14C-thymidine pulse; cell line not stated (HCT116 or MKN45)
Experimental: D) Measurement of Cellular Proliferation by 14C-Thymidine Pulse
The cells are sown in Cytostar 96-well plates under 180 μl for 4 hours at 37° C. and 5% CO2: The HCT116 cells at a rate of 2500 cells per well in DMEM medium+10% foetal calf serum+1% of L-glutamine and the MKN45 cells at a rate of 7500 cells per well in RPMI medium+10% foetal calf serum+1% of L-glutamine. After said incubation for 4 hours, the products are added under 10 μl in 20-times concentrated solution according to the method of dilution stated for ELISA. The products are tested at 10 concentrations in duplicate from 10000 nM to 0.3 nM in steps of 3.
After treatment for 72 h, add 10 μl of 14C-thymidine at 10 μCi/ml to obtain 0.1 μCi per well. The incorporation of 14C-thymidine is measured on a Micro-Beta (Perkin-Elmer) after 24 hours of pulse and 96 h of treatment.
All the stages of the test are automated on the BIOMEK 2000 or TECAN stations.

[3] = biological target: T2, MET (Homo sapiens, UniProt P08581); assay: Test C: inhibition of the autophosphorylation of MET, ELISA technique (pppY1230, 1234, 1235), MKN45 cells; format: cell-based
T2 construct: endogenous in cells; host or cells: MKN45 cells
Experimental: C) Inhibition of the Autophosphorylation of MET; ELISA Technique (pppY1230, 1234, 1235)
a) Cellular lysates: Sow the MKN45 cells in a 96-well plate (Cell coat BD polylysine) at 20 000 cells/well under 200 μl of medium RPMI+10% FCS+1% L-glutamine. Leave to adhere to the incubator for 24 h.
The cells are treated on the day after sowing with the products at 6 concentrations in duplicate for 1 h. At least 3 control wells are treated with the same amount of final DMSO.
Dilution of the products: Stock at 10 mM in pure DMSO—range from 10 mM to 30 μM with steps of 3 of pure DMSO—Intermediate dilutions to 1/50 in culture medium then taking of 10 μl added directly to the cells (200 μl): final range from 10000 to 30 nM.
At the end of incubation, carefully remove the supernatant and rinse with 200 μl of PBS. Then put 100 μl of lysis buffer directly in the wells on ice and incubate at 4° C. for 30 minutes. Lysis buffer: 10 mM Tris, HCl pH7.4, 100 mM NaCl, 1 mM EDTA, 1 mM EGTA, 1% Triton X-100, 10% glycerol, 0.1% SDS, 0.5% deoxycholate, 20 mM NaF, 2 mM Na3VO4, 1 mM PMSF and antiprotease cocktail.
The 100 μl of lysates are transferred to a V-bottomed polypropylene plate and ELISA is performed next or the plate is frozen at −80° C.
b) ELISA PhosphoMET BioSource Kit KH00281
In each well of the plate from the kit, add 70 μl of dilution buffer from the kit+30 μL of cell lysate or 30 μl of lysis buffer for the blank. Incubate for 2 h at room temperature, stirring gently.
Rinse the wells 4 times with 400 μl of washing buffer from the kit. Incubate with 100 μl of anti-phospho MET antibodies for 1 h at room temperature.
Rinse the wells 4 times with 400 μl of washing buffer from the kit. Incubate with 100 μl of anti-rabbit HRP antibodies for 30 minutes at room temperature (except for the wells with chromogen only).
Rinse the wells 4 times with 400 μl of washing buffer from the kit. Add 100 μL of chromogen and incubate for 30 minutes in the dark at room temperature.
Stop the reaction with 100 μl of stop solution. Read at once at […] 0.1 second in the Wallac Victor plate reader.
The products of formula (I) as defined above show cellular activity in this test between 10 nM and 10 μM.

T2 sequence (P08581 25-1390): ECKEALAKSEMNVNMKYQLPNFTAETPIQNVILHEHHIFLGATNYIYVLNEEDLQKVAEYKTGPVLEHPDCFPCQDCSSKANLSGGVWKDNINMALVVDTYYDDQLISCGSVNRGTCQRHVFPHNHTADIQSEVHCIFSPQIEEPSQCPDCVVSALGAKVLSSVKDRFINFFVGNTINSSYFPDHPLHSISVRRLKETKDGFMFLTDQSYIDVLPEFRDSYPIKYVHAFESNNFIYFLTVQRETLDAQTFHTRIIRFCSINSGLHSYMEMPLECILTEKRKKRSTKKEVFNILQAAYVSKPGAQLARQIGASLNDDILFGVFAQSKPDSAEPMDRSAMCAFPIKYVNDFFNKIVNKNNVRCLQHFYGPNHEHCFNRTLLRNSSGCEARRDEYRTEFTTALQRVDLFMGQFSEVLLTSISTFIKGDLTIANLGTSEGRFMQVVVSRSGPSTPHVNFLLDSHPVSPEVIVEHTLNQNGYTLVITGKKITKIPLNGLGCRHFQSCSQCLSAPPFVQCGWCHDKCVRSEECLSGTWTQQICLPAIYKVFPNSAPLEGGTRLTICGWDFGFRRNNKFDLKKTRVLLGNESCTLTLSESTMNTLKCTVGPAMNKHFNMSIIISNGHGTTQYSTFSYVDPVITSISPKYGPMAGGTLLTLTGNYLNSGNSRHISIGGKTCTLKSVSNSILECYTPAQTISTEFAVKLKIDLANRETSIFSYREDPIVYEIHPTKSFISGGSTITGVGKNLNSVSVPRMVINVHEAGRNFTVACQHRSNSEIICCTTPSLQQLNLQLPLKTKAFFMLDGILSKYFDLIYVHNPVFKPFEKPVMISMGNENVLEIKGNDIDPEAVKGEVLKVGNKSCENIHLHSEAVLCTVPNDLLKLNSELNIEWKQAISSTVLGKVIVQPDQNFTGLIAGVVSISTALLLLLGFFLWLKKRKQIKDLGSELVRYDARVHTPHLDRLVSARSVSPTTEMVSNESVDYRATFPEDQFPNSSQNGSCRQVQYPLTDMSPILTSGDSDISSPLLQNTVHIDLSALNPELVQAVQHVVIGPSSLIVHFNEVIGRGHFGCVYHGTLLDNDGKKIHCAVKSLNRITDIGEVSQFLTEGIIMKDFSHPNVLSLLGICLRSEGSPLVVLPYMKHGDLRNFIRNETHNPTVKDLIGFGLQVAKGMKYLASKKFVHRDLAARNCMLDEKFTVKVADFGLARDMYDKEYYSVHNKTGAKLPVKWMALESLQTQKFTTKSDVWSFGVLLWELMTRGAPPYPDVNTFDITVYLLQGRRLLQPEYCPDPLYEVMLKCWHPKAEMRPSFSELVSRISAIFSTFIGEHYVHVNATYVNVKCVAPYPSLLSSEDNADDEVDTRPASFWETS
T1 sequence (P08581 956-1390): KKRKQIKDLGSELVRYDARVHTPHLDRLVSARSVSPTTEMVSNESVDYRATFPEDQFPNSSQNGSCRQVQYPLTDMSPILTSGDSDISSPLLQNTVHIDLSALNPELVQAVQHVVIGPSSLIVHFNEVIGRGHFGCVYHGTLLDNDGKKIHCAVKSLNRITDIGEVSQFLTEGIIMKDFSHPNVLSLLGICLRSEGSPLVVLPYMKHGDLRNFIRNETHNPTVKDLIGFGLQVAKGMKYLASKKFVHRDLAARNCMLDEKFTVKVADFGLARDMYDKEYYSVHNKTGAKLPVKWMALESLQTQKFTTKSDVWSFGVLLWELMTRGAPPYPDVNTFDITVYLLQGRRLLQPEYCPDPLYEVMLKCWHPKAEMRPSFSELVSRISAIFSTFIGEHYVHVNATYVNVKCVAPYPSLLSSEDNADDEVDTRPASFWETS

SMILES	melting point [°C]	pIC50 [1]	pIC50 [2]	pIC50 [3]
CCOCCNC(=O)Nc1nc2cc(F)c(OC(C)c3c(Cl)ccc(F)c3Cl)cc2s1 (centres unmarked) [Example 86, 1-{6-[1-(2,6-dichloro-3-fluorophenyl)ethoxy]-5-fluoro-1,3-benzothiazol-2-yl}-3-(2-ethoxyethyl)urea]	166 to 167	> 7.00	5.00 to 6.30	> 6.30
CC(Oc1ccc2nc(NC(=O)NCCN3CCOCC3)sc2c1)c1c(F)ccc(Cl)c1F (centres unmarked) [Example 63, 1-{6-[1-(3-chloro-2,6-difluorophenyl)ethoxy]-1,3-benzothiazol-2-yl}-3-(2-morpholin-4-ylethyl)urea]	154	5.00 to 7.00	< 5.00	5.00 to 6.30
O=C(Nc1nc2cc(F)c(OCc3c(Cl)cccc3Cl)cc2s1)C1CC1 [Example 22, N-{6-[(2,6-dichlorobenzyl)oxy]-5-fluoro-1,3-benzothiazol-2-yl}cyclopropanecarboxamide]	215	> 7.00	< 5.00	5.00 to 6.30
CC(Oc1cc2sc(NC(=O)NCCn3cccc3)nc2cc1F)c1c(Cl)ccc(F)c1Cl (centres unmarked) [Example 91, 1-{6-[1-(2,6-dichloro-3-fluorophenyl)ethoxy]-5-fluoro-1,3-benzothiazol-2-yl}-3-[2-(1H-pyrrol-1-yl)ethyl]urea]	178 to 198	> 7.00	5.00 to 6.30	5.00 to 6.30
COCCN(C)C(=O)Nc1nc2cc(F)c(OC(C)c3c(Cl)ccc(F)c3Cl)cc2s1 (centres unmarked) [Example 93, 3-{6-[1-(2,6-dichloro-3-fluorophenyl)ethoxy]-5-fluoro-1,3-benzothiazol-2-yl}-1-(2-methoxyethyl)-1-methylurea]	62 to 67	> 7.00	5.00 to 6.30	5.00 to 6.30
CCC(Oc1ccc2nc(NC(=O)NCCN3CCOCC3)sc2c1)c1c(Cl)cccc1Cl (centres unmarked) [Example 122, 1-{6-[1-(2,6-dichlorophenyl)propoxy]-1,3-benzothiazol-2-yl}-3-[2-(morpholin-4-yl)ethyl]urea]	200	> 7.00	5.00 to 6.30	5.00 to 6.30
CC(Oc1ccc2nc(N)sc2c1)c1c(Cl)ccc(F)c1Cl (centres unmarked) [Example 23, 6-[1-(2,6-dichloro-3-fluorophenyl)ethoxy]-1,3-benzothiazol-2-amine]	186 to 194	5.00 to 7.00	< 5.00	
CC(C)OCCNC(=O)Nc1nc2cc(F)c(OC(C)c3c(Cl)ccc(F)c3Cl)cc2s1 (centres unmarked) [Example 92, 1-{6-[1-(2,6-dichloro-3-fluorophenyl)ethoxy]-5-fluoro-1,3-benzothiazol-2-yl}-3-(2-isopropoxyethyl)urea]	177 to 184	> 7.00	5.00 to 6.30	> 6.30
Cc1ccc(F)c(C(C)Oc2ccc3nc(N)sc3c2)c1Cl (centres unmarked) [Example 27, 6-[1-(2-chloro-6-fluoro-3-methylphenyl)ethoxy]-1,3-benzothiazol-2-amine]	170	5.00 to 7.00	< 5.00	
CC(Oc1cc2sc(NC(=O)C3CC3)nc2cc1F)c1c(Cl)ccc(F)c1Cl (centres unmarked) [Example 67, N-{6-[1-(2,6-dichloro-3-fluorophenyl)ethoxy]-5-fluoro-1,3-benzothiazol-2-yl}cyclopropanecarboxamide]	186 to 189	> 7.00	> 6.30	> 6.30
O=C(NCCN1CCOCC1)Nc1nc2ccc(OCc3cc(Cl)nc(Cl)c3)cc2s1 [Example 16, 1-{6-[(2,6-dichloropyridin-4-yl)methoxy]-1,3-benzothiazol-2-yl}-3-(2-morpholin-4-ylethyl)urea]	193	5.00 to 7.00	< 5.00	
O=C(Nc1nc2ccc(OCc3c(Cl)cccc3Cl)cc2s1)C1CC1 [Example 9, N-{6-[(2,6-dichlorobenzyl)oxy]-1,3-benzothiazol-2-yl}cyclopropane carboxamide]	178	> 7.00	> 6.30	
